Measurements: PMC4770311, “Discovery and Characterization of GSK2801, a Selective Chemical Probe for the Bromodomains BAZ2A and BAZ2B” (Journal of Medicinal Chemistry, 2015)
Where “and” joins values, the source holds several entries; their conditions need not be identical. Equal entries are not always repeated.

Columns and labels:
[1] = tested on: panel of biotin-labeled bromodomains; settings: two concentrations, 0.2 and 1.0 μM
Description: measurements were taken over a 12 point 1:2 serial dilution of compound. IC50s were calculated in GraphPad Prism 5 (GraphPad Software, USA).
Biolayer interference assays. BAZ2A and BAZ2B were expressed in frame with a C- […]
of a single biotin using the biotin ligase (BirA) which has been co-expressed in E. coli using the co-expression vector BL21(DE3)-R3-pRARE2-BirA. Cells were grown in the presence of 0.1 mM biotin and were lysed and purified using a similar procedure as described for the non-biotin labelled protein.
The biotin labelled BAZ2B and BAZ2A was immobilized on SuperStreptavidin BLI sensors.
BioLayer Interferometry (BLI) experiments were performed on a 16-channel ForteBio Octet […]
buffer. The reference sensors without attached bromodomain were used to subtract background binding to SuperStreptavidin sensors. Data were processed and analysed using ForteBio Analysis software.
Determination of PK profiles for GSK2801 after IP (intraperitoneal) and PO (oral) administrations to male CD-1 mice: These PK studies were performed by the DMPK […]
The IP and PO dosing solutions were prepared in 0.5%
Test system: CD-1 mice, 28-32g, male, N=18, purchased from SLAC Laboratory Animal Co.
LTD. The animals were given free access to food and water. A dose of 30 mg/kg (10 mL/kg) was used via intraperitoneal injection (N=9) and for oral dosing 30 mg/kg (10 mL/kg) via gavage (N=9). […]

BAZ2A [2] = target: BAZ2A (Homo sapiens, UniProt Q9UIF9); assay: Chemoproteomic competition binding assay, endogenous BAZ2A; settings: up to a concentration of 50 μM; HuT78 extracts
Target sequence in this assay (Q9UIF9 whole entry): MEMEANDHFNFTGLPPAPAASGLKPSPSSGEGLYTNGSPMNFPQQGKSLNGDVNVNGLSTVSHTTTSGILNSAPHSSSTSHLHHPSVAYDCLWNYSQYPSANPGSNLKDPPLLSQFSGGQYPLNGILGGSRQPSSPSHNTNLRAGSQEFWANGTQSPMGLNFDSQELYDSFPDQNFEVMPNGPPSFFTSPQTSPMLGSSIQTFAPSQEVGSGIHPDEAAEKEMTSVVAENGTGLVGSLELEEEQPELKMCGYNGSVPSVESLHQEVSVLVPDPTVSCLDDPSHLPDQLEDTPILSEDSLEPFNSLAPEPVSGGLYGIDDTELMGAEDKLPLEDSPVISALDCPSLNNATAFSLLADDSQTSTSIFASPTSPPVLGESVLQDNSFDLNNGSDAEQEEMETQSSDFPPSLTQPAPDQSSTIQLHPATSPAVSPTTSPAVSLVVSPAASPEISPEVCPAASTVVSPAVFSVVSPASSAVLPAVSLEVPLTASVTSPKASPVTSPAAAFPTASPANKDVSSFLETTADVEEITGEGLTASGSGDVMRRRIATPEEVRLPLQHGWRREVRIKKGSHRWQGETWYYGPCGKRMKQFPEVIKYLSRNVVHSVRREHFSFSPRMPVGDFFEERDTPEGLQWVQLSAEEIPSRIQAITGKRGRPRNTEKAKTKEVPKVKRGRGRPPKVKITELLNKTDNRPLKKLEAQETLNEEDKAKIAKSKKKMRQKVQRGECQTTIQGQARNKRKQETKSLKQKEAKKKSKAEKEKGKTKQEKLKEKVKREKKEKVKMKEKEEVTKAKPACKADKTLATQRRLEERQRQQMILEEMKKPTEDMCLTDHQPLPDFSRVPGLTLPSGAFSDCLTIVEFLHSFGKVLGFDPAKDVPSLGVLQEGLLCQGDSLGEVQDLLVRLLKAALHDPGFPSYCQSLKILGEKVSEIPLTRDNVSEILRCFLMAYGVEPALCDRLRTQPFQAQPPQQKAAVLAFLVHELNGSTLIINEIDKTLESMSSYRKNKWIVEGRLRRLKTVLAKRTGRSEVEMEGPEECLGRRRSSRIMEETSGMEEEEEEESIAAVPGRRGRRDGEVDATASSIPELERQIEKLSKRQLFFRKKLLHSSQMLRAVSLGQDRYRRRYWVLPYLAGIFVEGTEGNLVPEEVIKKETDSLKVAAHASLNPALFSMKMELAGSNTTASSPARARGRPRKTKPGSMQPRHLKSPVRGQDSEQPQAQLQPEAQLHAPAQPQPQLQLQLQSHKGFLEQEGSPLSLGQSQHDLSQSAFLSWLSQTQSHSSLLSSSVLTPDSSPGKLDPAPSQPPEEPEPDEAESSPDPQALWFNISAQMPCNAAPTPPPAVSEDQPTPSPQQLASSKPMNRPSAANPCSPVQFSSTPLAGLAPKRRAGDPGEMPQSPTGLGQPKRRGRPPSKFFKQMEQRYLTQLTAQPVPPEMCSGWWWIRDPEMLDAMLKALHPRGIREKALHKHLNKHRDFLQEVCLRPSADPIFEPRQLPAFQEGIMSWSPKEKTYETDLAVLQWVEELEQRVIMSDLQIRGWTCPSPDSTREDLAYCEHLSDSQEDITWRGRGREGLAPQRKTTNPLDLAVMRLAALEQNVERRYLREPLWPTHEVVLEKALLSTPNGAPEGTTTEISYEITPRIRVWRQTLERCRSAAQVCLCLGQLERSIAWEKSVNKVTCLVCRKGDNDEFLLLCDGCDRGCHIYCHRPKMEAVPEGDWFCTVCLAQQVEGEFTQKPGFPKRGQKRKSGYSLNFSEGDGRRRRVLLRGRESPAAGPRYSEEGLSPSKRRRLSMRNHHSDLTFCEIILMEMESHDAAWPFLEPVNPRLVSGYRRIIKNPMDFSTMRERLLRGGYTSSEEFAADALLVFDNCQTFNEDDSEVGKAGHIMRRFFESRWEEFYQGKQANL

SMARCA2 and 4 = assay: Chemoproteomic competition binding assay, endogenous SMARCA2 and 4; settings: HuT78 extracts; likely indirect via BRD9 in BAF complex
BRD9 [3] = target: T1, BRD9 (Homo sapiens, UniProt Q9H8M2); assay: Chemoproteomic competition binding assay, endogenous BRD9; settings: HuT78 extracts; competition with affinity matrix
T1 construct: endogenous in cells; host or cells: HuT78
T1 sequence (Q9H8M2 1-597): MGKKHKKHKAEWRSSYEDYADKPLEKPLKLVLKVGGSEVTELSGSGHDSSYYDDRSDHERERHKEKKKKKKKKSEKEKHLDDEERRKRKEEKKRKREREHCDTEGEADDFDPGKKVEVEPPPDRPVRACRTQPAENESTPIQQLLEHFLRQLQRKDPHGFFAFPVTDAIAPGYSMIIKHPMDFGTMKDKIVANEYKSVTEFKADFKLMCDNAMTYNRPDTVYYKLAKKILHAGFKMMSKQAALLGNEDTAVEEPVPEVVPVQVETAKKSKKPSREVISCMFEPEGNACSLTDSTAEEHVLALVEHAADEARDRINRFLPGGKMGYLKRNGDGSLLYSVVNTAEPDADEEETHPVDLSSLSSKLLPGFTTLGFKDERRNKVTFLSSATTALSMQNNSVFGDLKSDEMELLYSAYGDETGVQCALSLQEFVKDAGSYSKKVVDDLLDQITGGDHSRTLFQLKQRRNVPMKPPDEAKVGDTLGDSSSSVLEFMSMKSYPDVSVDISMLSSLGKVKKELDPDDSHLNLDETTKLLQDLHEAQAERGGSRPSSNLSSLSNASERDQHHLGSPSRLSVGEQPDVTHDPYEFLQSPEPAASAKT

BRD9 [4] = target: T2, BRD9 (Homo sapiens, UniProt Q9H8M2); assay: Isothermal titration calorimetry BRD9; type: binding; settings: ITC
T2 construct: ITC experiments using the bromodomain of BRD9
Description: VP-ITC (MicroCal) at 15 °C.
reaction cell containing the inhibitors (15 µM). Integrated heat of the titrations after corrected
modifications from the manufacturers protocol (PerkinElmer, USA). Briefly, all reagents were
final) were then added under low light conditions. Plates were foil sealed to protect from […]

BAZ2B = BAZ2B (Homo sapiens, UniProt Q9UIF8); assay: Chemoproteomic competition binding assay, endogenous BAZ2B; settings: up to a concentration of 50 μM; HuT78 extracts
Sequence of BAZ2B (Q9UIF8 whole entry): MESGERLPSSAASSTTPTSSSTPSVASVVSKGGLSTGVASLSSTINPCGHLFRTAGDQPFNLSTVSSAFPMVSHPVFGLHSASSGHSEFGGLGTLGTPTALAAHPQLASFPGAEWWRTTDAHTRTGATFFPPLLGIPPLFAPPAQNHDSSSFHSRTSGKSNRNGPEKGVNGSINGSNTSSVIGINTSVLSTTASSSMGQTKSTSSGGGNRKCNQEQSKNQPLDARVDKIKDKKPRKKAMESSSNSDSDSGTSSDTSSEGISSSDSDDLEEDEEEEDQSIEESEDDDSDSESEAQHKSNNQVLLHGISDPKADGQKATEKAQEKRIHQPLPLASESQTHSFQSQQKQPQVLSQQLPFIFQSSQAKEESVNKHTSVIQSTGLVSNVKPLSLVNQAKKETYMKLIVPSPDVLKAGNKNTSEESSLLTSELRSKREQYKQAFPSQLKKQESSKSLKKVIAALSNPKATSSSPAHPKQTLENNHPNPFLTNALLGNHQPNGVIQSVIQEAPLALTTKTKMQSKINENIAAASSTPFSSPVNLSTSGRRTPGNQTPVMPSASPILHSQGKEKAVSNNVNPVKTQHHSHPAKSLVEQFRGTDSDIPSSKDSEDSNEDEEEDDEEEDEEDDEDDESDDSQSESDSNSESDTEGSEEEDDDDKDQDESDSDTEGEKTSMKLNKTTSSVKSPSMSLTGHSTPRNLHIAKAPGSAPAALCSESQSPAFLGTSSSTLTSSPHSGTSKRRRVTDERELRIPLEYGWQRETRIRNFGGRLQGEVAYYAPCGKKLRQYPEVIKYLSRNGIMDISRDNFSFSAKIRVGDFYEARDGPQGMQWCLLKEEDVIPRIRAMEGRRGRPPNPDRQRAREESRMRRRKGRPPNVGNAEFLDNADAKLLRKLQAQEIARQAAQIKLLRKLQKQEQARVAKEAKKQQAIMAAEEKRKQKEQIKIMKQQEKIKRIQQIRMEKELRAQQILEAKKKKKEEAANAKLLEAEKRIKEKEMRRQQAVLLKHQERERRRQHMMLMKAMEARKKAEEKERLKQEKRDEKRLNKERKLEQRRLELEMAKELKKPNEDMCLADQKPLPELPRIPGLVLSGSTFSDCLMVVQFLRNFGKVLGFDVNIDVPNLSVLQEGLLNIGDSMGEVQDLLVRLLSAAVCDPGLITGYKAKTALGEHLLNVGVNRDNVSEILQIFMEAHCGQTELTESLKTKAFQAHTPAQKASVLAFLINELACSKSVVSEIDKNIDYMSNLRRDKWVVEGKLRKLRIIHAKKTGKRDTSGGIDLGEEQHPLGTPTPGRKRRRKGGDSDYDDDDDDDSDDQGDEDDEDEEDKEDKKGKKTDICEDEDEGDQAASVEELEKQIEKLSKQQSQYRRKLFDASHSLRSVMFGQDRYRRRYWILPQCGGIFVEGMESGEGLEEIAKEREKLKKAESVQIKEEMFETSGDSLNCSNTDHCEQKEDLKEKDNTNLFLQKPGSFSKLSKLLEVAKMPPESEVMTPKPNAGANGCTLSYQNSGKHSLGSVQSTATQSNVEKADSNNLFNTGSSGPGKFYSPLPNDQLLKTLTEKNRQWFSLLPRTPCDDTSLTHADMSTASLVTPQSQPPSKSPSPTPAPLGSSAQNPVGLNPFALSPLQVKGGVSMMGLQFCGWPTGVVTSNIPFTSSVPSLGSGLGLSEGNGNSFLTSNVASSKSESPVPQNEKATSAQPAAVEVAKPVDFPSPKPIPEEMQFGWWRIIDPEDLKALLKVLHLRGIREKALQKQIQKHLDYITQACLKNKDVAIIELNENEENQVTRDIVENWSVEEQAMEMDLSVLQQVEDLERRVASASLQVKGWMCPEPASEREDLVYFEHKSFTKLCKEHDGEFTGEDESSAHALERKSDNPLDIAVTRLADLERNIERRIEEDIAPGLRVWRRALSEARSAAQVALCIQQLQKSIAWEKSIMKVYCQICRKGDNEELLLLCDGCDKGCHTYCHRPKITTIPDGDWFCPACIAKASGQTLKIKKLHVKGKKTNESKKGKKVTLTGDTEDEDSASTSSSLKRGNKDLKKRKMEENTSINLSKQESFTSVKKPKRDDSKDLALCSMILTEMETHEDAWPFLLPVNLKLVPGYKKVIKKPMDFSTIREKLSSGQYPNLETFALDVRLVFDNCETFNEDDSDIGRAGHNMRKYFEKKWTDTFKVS

BAZ2A [5] = target: T3, BAZ2A (Homo sapiens, UniProt Q9UIF9); assay: AlphaScreen assay BAZ2A; type: binding; settings: average of three replicates ± SEM
T3 construct: Recombinant BAZ2A and BAZ2B bromodomains were expressed in; made in house; host or cells: E. coli
T3 sequence (Q9UIF9 1793-1897 limits assumed): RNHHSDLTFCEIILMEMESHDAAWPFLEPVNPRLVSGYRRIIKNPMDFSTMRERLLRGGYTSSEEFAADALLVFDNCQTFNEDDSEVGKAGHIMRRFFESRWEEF
Description: (§1) AlphaScreen: AlphaScreen was performed as described previously 10, with minor modifications from the manufacturers protocol (PerkinElmer, USA). Briefly, all reagents were diluted in the recommended buffer (50 mM HEPES, 100 mM NaCl, 0.1% BSA; pH = 7.4) supplemented with 0.05% CHAPS and allowed to equilibrate to room temperature prior to […]
(§2) Plates were sealed and incubated at room temperature for 30 min. 4 μL of streptavidin-coated donor beads (10ug/mL final) and 4 μL of nickel chelate acceptor beads (10 μg/ml final) were then added under low light conditions. Plates were foil sealed to protect from light, incubated at room temperature for 60 min and read on a PHERAstar FS plate reader (BMG Labtech, Germany) using an AlphaScreen 680 excitation/570 emission filter set.
(§3) Fragments were dissolved in ethylene glycol to overcome sensitivity of the bromodomain assay to DMSO and allow compounds to be screened at mM concentrations. IC50 […]
(§4) measurements were taken over a 12 point 1:2 serial dilution of compound. IC50s were calculated in GraphPad Prism 5 (GraphPad Software, USA). […]

BRD4(1) = target: T4, BRD4(1) (Homo sapiens, UniProt O60885); assay: AlphaScreen cross screening BRD4(1); type: binding; settings: average of three replicates ± SEM
T4 construct: […]
Description: as §1, §2, §3, §4

BRD9 [6] = target: T2, BRD9; assay: AlphaScreen cross screening BRD9; type: binding; settings: average of three replicates ± SEM
Description: as §1, §2, §3, §4

TAF1L(2) = target: T5, TAF1L(2) (Homo sapiens, UniProt Q8IZX4); assay: Isothermal titration calorimetry TAF1L(2); type: binding; settings: ITC
T5 construct: the second bromodomain in TAF1L(2)
T5 sequence (Q8IZX4 1517-1626 limits assumed): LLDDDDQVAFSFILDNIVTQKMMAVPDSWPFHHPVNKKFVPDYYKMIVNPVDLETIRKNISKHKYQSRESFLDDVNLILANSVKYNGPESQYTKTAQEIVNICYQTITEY
Description: Thermal stability shift assays: The recombinant bromodomains at 2 µM were mixed with 10 µM inhibitors. The assays and data evaluation for melting temperatures were performed using a Real-Time PCR Mx3005p machine (Stratagene) and the protocols previously […]
Isothermal titration calorimetry: All calorimetric titration experiments were carried out on VP-ITC (MicroCal) at 15 °C. The buffer condition used was 20 mM HEPES, pH 7.5, 150 mM NaCl and 0.5 mM TCEP. Titration was performed by injecting the proteins (200 µM) into a […]
Integrated heat of the titrations after corrected for the heat of dilution were analysed using the Origin program. The corrected data were fitted to a single binding site model using a nonlinear least-square minimization algorithm, and the binding parameters including reaction enthalpy changes (ΔH), reaction […] changes (TΔS), equilibrium dissociation constants (KD), stoichiometry (n) were calculated.
AlphaScreen: AlphaScreen was performed as described previously 10, with minor modifications from the manufacturers protocol (PerkinElmer, USA). […]
Plates were sealed and incubated at room temperature for 30 min. […] Plates were foil sealed to protect from light, incubated at room temperature for 60 min and read on a PHERAstar FS plate reader (BMG Labtech, Germany) using an AlphaScreen 680 excitation/570 emission filter set. […]

BRD9 [7] = target: T2, BRD9; assay: Thermal stability shift assay BRD9; type: binding; settings: inhibitor concentration 10 μM; read-out: temperature shift (ΔTm) BRD9

## CCCOc1ccn2c(C(C)=O)cc(-c3cccc(OC)c3)c2c1 [Compound 23, 1-(1-(3-Methoxyphenyl)-7-propoxyindolizin-3-yl)ethanone]
[1]
  selectivity in BLI bromodomain panel: inactive against BAZ2A/B and all other bromodomains except BRD9
BAZ2A [2]
  binding to endogenous BAZ2A: did not show any binding
SMARCA2 and 4
  pKd SMARCA2 and 4: 4.8
BRD9 [3]
  pKd BRD9: 4.5
BRD9 [4]
  Kd: 1040 nM
  binding enthalpy change ΔH BRD9: −8.98 (± 0.152) kcal/mol
BAZ2B
  binding to endogenous BAZ2B: did not show any binding

## CC(=O)c1cc(-c2ccccc2S(C)(=O)=O)c2ccccn12 [Compound 12, 1-(1-(2-(methylsulfonyl)phenyl)indolizin-3-yl)ethanone]
BAZ2A [5]
  IC50: 720 ± 70 nM
BRD4(1)
  IC50: > 50000 nM
BRD9 [6]
  IC50: 17900 ± 3850 nM

## COc1ccn2c(C(C)=O)cc(-c3ccccc3CO)c2c1 [Compound 14, 1-(1-(2-(hydroxymethyl)phenyl)-7-methoxyindolizin-3-yl)ethanone]
BAZ2A [5]
  IC50: 1200 ± 10 nM

## CC(=O)c1cc(-c2ccccc2S(C)(=O)=O)c2cc(C)ccn12 [Compound 22, 1-(7-methyl-1-(2-(methylsulfonyl)phenyl)indolizin-3-yl)ethanone]
BAZ2A [5]
  IC50: 890 nM

## CC(=O)c1cc(-c2cccc(C(N)=O)c2)c2ccccn12 [Compound 8, 3-(3-acetylindolizin-1-yl)benzamide]
BAZ2A [5]
  IC50: 1800 ± 20 nM

## CC(=O)c1cc(-c2ccccc2CO)c2cc(C)ccn12 [Compound 13, 1-(1-(2-(hydroxymethyl)phenyl)-7-methylindolizin-3-yl)ethanone]
BAZ2A [5]
  IC50: 1000 ± 90 nM

## CC(=O)c1cc(-c2ccccc2S(C)(=O)=O)c2cc(CNC(=O)OC(C)(C)C)ccn12 [Compound 18, tert-butyl ((3-acetyl-1-(2-(methylsulfonyl)phenyl)indolizin-7-yl)methyl)carbamate]
BAZ2A [5]
  IC50: 160 ± 50 nM
BRD4(1)
  IC50: > 50000 nM
BRD9 [6]
  IC50: 1400 ± 40 nM

## COc1ccn2c(C(C)=O)cc(-c3ccccc3S(C)(=O)=O)c2c1 [Compound 21, 1-(7-methoxy-1-(2-(methylsulfonyl)phenyl)indolizin-3-yl)ethanone]
BAZ2A [5]
  IC50: 580 ± 50 nM
BRD4(1)
  IC50: > 50000 nM
BRD9 [6]
  IC50: > 50000 nM

## CC(=O)c1cc(-c2ccccc2CO)c2cc(C(N)=O)ccn12 [Compound 16, 3-acetyl-1-(2-(hydroxymethyl)phenyl)indolizine-7-carboxamide]
BAZ2A [5]
  IC50: 4100 ± 90 nM

## CC(=O)c1cc(-c2ccccc2CO)c2ccccn12 [Compound 7, 1-(1-(2-(hydroxymethyl)phenyl)indolizin-3-yl)ethanone]
BAZ2A [5]
  IC50: 1800 ± 50 nM
BRD4(1)
  IC50: 38900 ± 13300 nM
BRD9 [6]
  IC50: 23700 ± 160 nM

## CC(=O)c1cc(-c2ccc(CO)cc2)c2ccccn12 [Compound 10, 1-(1-(4-(hydroxymethyl)phenyl)indolizin-3-yl)ethanone]
BAZ2A [5]
  IC50: 1200 ± 70 nM

## CCCOc1ccn2c(C(C)=O)cc(-c3ccccc3S(C)(=O)=O)c2c1 [Compound 19, 1-(1-(2-(methylsulfonyl)phenyl)-7-propoxyindolizin-3-yl)ethanone]
TAF1L(2)
  binding enthalpy change ΔH TAF1L(2): −8.6 (±0.02) kcal/mol
TAF1L(2); listed as GSK2801
  Kd: 3200 nM and 3190 nM
BRD9 [7]
  ΔTm at 10 µM: 2.3 °C
BRD4(1)
  IC50: > 50000 nM
BRD9 [4]
  binding enthalpy change ΔH BRD9: −9.8 (±0.01) kcal/mol
BRD9 [4]; listed as GSK2801
  Kd: 1200 nM
BRD9 [6]
  IC50: > 50000 nM

## COc1ccc(-c2cc(C(C)=O)n3ccccc23)c(CO)c1 [Compound 9, 1-(1-(2-(hydroxymethyl)-4-methoxyphenyl)indolizin-3-yl)ethanone]
BAZ2A [5]
  IC50: 1400 ± 10 nM

## CC(=O)c1cc(-c2ccc(N(C)C)cc2)c2ccccn12 [Compound 11, 1-(1-(4-(dimethylamino)phenyl)indolizin-3-yl)ethanone]
BAZ2A [5]
  IC50: 1100 ± 70 nM

## CC(=O)c1cc(-c2ccccc2S(C)(=O)=O)c2cc(Oc3ccccc3)ccn12 [Compound 20, 1-(1-(2-(methylsulfonyl)phenyl)-7-phenoxyindolizin-3-yl)ethanone]
BAZ2A [5]
  IC50: 550 nM
BRD4(1)
  IC50: > 50000 nM
BRD9 [6]
  IC50: 19900 ± 1840 nM

## CC(=O)c1cc(-c2cccs2)c2ccccn12 [Compound 4, 1-(1-(Thiophen-2-yl)indolizin-3-yl)ethanone]
BAZ2A [5]
  IC50: 8600 ± 10 nM

## CC(=O)c1cc(-c2ccccc2CO)c2cc(Oc3ccccc3)ccn12 [Compound 17, 1-(1-(2-(hydroxymethyl)phenyl)-7-phenoxyindolizin-3-yl)ethanone]
BAZ2A [5]
  IC50: 4100 ± 60 nM

## CC(=O)c1cc(-c2ccccc2O)c2ccccn12 [Compound 5, 1-(1-(2-hydroxyphenyl)indolizin-3-yl)ethanone]
BAZ2A [5]
  IC50: 7200 ± 60 nM

## COc1cccc(-c2cc(C(C)=O)n3ccccc23)c1 [Compound 3, 1-(1-(3-Methoxyphenyl)indolizin-3-yl)ethanone]
BAZ2A [5]
  IC50: > 30000 nM

## CC(=O)c1cc(-c2ccccc2CO)c2cc(N3CCOCC3)ccn12 [Compound 15, 1-(1-(2-(hydroxymethyl)phenyl)-7-morpholinoindolizin-3-yl)ethanone]
BAZ2A [5]
  IC50: 1700 ± 130 nM

## CC(=O)c1cc(-c2cccc(O)c2)c2ccccn12 [Compound 6, 1-(1-(3-hydroxyphenyl)indolizin-3-yl)ethanone]
BAZ2A [5]
  IC50: 3300 ± 50 nM
